Assay type in all cases: in vivo
The test system of data set [1] is Htr3b mRNA. As to the kind of experiment: Htr3b mRNA expression in brain after chronic morphine (specificity control). The following applies: brain tissue, four days of morphine versus saline, C57Bl/6J and 129/SvlmJ mice.
Data set [2] concerns C57BL/6J mice. As to the kind of experiment: Opioid dependence related hyperalgesia, mechanical nociceptive threshold (von Frey filaments). The protocol:
(§1) In some experiments the selective 5-HT3 antagonist ondansetron (Sigma) was administered. For systemic administration, ondansetron was injected subcutaneously in […] of 0.9% NaCl to some groups of mice. […] For intracerebroventricular (i.c.v.) administration, mice were briefly anesthetized with inhaled isoflurane. A 30 gauge ½ inch needle was used to pierce the skull and enter the ventricles using an approach described previously (Pedigo, N. W. et al. J Pharmacol Exp Ther, 1975. 193(3): p. 845-852). Once inserted, 5 μl of injectate was slowly administered using a microsyringe, and the animals were used within 20 minutes after the injection.
In these experiments, mice were placed on wire mesh platforms in clear cylindrical plastic cylinders. After 15 minutes of acclimation, fibers of sequentially increasing stiffness were applied to the plantar surface of one hind paw, pressed upward to cause a slight bend in the fiber and left in place 5 sec. Withdrawal of the hind paw from the fiber was scored as a response. When no response was obtained the next stiffest fiber in the series was applied to the same paw; if a response was obtained a less stiff fiber was applied. Testing proceeded in this manner until 4 fibers had been applied after the first one causing a withdrawal response allowing the estimation of the mechanical withdrawal threshold (Poree, L. R., et al., Anesth Analg, 1998. 87(4): p. 941-948).

The subject of data set [3] is morphine-dependent mice. As to the kind of experiment: Naloxone-precipitated withdrawal jumping in morphine-dependent mice. The protocol:
After naloxone administration, mice were placed in clear plastic cylinders (10 cm in diameter and 40 cm in height, and the number of jumps during the following 15 minutes were counted. Naloxone precipitated jumping behavior is a robust response reflecting physical dependence on opioids observed across strains of inbred mice (Kest, B., et al., Neuroscience 2002. 115(2): 463-469).
as §1

The subject of data set [4] is C57BL/6J mice. In words: Conditioned place preference (CPP) associated with morphine. Here is the method:
The CPP experiments were performed using Place Preference System (MED Associates Inc., St. Albans, Vt.), which consists of three compartments; two outer compartments for active association and a middle neutral compartment. One association compartment is constructed of white opaque plastic walls with a floor made of metal rods while the other compartment is made of black opaque plastic walls with a metal mesh floor. The smaller middle neutral compartment is made of gray opaque plastic walls and floor. Experiments were conducted in a dimly lit room with homogenous lighting (˜20 lux). The place preference apparatus is equipped with motion photo-sensors with data recorded via a computer running MED PC software (MED Associates Inc, Vt.). C57B1/6J mice (8 to 12 weeks old) were used in all experiments, which were carried out during the second half of the light phase between 13:00-18:00 hr. On Day 0, the mice were acclimated to the test room and the time spent in each compartment was recorded (pre-conditioning report). Any mouse that spent more than 75% of the time in either of the association compartments was excluded. On the following day each mouse was randomized to a control or drug group and assigned to either the white or black association compartments in a counter-balanced fashion (n=10-15 per group). […] Twenty-five minutes after injection(s), each mouse was placed into its assigned association compartment for 25 min without access to the other compartments. On Days 2, 4 and 6, the mice received saline injections and were placed in the alternative compartment after 25 min. On Day 7, mice were placed in the middle neutral compartment of the place preference apparatus with full access to the other two compartments and assessed for the length of time spent in each compartment (post-conditioning report). The percentage of time spent in each association compartment was calculated relative to the total time spent in both association compartments.

The test system of data set [5] is healthy male volunteers. As to the kind of experiment: Acute naloxone-precipitated opioid withdrawal in human volunteers after ondansetron pretreatment (OOWS, SOWS). The source says:
Eight healthy male volunteers underwent an acute precipitated narcotic drug withdrawal protocol as previously described (Compton, P., et al., Pharmacol Biochem Behav, 2004. 77(2): p. 263-268) with or without ondansetron pretreatment using a randomized double-blinded placebo-controlled crossover study design on two separate occasions. Test sessions for each individual subject were separated by at least seven days. Female volunteers were excluded from the study due to modulation of opioid response by menstruation cycles (Hoehe, M., Psychoneuroendocrinology, 1988. 13(4): p. 339-344). The human experimental protocol was approved by the Institutional Review Board (Stanford University). Each volunteer provided written informed consent prior to study enrollment, and the study was registered in the clinicaltrials.gov database (identifier NCT00661674).
All study sessions were conducted by a blinded research assistant (ND) and supervised by an un-blinded physician (LC) who administered the study medication and monitored heart rate, blood pressure and arterial oxygenation throughout the study. The subjective opioid withdrawal scale (SOWS) and objective opioid withdrawal scale (OOWS) were completed after establishing intravenous access and before administration of study medications, as originally described by Handelsman et al (Handelsman, L., et al., Am J Drug Alcohol Abuse, 1987. 13(3): p. 293-308). All OOWS measurements were obtained by the same blinded research assistant (ND). Ondansetron (Bedford Laboratories, Bedford, Ohio) 8 mg or placebo (0.9% saline solution, Hospira Inc., Lake Forest, Ill.) was administered in a double-blinded fashion as an IV bolus. […] Patients remained in the lab under observation for 105 minutes and were offered music or video entertainment and caffeine-free meals or snacks ad lib during this period of time. After 105 minutes, the patient's vital signs and OOWS and SOWS were reassessed. […] Vital signs, SOWS and OOWS were administered five minutes and fifteen minutes after the naloxone administration.
Animal behavioral data was analyzed using one or two-way ANOVA with post-hoc Tukey testing or, for conditioned place preference data with t-testing. The outcome measures of interest between the placebo- and ondansetron-treated groups were compared using paired t test and the Wilcoxon Signed Rank test where appropriate. Normal distribution was determined using QQ plots and the Kolmogorov-Smirnov test. Analyses were performed with SAS 9.1 statistical package (Cary, Ill.) with p<0.05 considered statistically significant.

In data set [6] the test system is male volunteers. In words: Naloxone-induced withdrawal in human volunteers, palonosetron alone or with hydroxyzine. Conditions: palonosetron 0.75 mg IV alone, 12 male volunteers. Here is the method: In these studies, palonosetron (a 5-HT3 antagonist) was administered alone, or in combination with a clinically available antihistamine (hydroxyzine) to human volunteers.

The mark [7] stands for this setting: ondansetron 8 mg IV 30 minutes prior to morphine 10 mg/70 kg IV, naloxone 120 minutes after morphine, versus placebo.

The structures appear in SMILES notation. “Also recorded” adds a separate entry of the source.

Turning to `CN1CC[C@]23c4c5ccc(O)c4O[C@H]2[C@@H](O)C=C[C@H]3[C@H]1C5` [morphine], the “expression of the Htr3b gene” value in data set [1] is listed as “not altered”. In addition, the “hyperalgesia after chronic morphine treatment” value in data set [2] (C57BL/6J mice, four day morphine protocol) is on record as “caused hyperalgesia”. In addition, the “jumps in the 15 minute period following naloxone administration” value in data set [3] (BUB/BnJ mice made dependent on morphine over a 4-day period) is on record as “over 100”; in data set [3] (SM/J mice made dependent on morphine over a 4-day period) it was “one”. Besides, in data set [4] (morphine 5 mg/kg i.p., placed in conditioning chamber 25 min after injection), the “mean difference between pre and post conditioning percentage of time spent in the compartment associated with drug” value came out at 21.29%.

As to `Cc1nccn1CC1CCc2c(c3ccccc3n2C)C1=O` (stereo not drawn) [ondansetron], the “pain sensitivity / baseline nociceptive thresholds” value in data set [2] (control mice not treated with morphine, ondansetron 30 minutes prior to threshold assessment) is on record as “no effect on pain sensitivity; also recorded: did not alter baseline nociceptive thresholds”. Also, the “hyperalgesia (mechanical nociceptive sensitization) during morphine abstinence” value in data set [2] (morphine-dependent mice, 18 hours after last morphine dose, ondansetron 30 minutes prior to threshold assessment (FIG. 4)) was “reversed the hyperalgesia; also recorded: dose-dependently reversed”. Also, the naloxone-precipitated withdrawal response result in data set [3] (C57BL/6J mice, ondansetron 1 mg/kg with each morphine dose during 4-day protocol, tested 18 hours after final dose (FIG. 3B)) is “diminished the naloxone-precipitated withdrawal response”. The “inhibition of naloxone-precipitated withdrawal” value in data set [3] (morphine-dependent C57BL/6J mice, ondansetron 1 mg/kg given acutely) was “not able to effectively inhibit withdrawal”. The naloxone-precipitated jumping behavior result in data set [3] (morphine-dependent C57BL/6J mice, ondansetron i.c.v. before naloxone (FIG. 3C)) was “profoundly blocked; also recorded: statistically significant and dose-dependent reduction”. Moreover, the naloxone-induced jumping result in data set [3] (morphine-dependent C57BL/6J mice, ondansetron s.c. once, range of doses, 30 minutes prior to testing (FIG. 3A)) was “significantly reduced; also recorded: statistically significant and dose-dependent reduction”. In data set [4] (ondansetron 1 mg/kg in addition to morphine 5 mg/kg, i.p.), the “mean difference between pre and post conditioning percentage of time spent in the compartment associated with drug” value amounted to 0.40%. Besides, the “place preference associated with morphine administration” value in data set [4] (ondansetron 1 mg/kg plus morphine 5 mg/kg) is listed as “completely blocked”. Moreover, in data set [5] (setting [7]), the “decrease in mean OOWS score” value is listed as 76.4%±22.6 and the “mean decrease in the subjective symptoms (SOWS score)” value is reported as 4.1%±62.5. Moreover, in data set [5] (ondansetron 8 mg IV pre-treatment, 12 of the 13 measured signs manifested), the “individual OOWS signs manifested by the volunteers” value is given as “decreased all 12 of these individual signs”. The “objective signs of opioid withdrawal in affected subjects” value in data set [5] (ondansetron 8 mg IV pre-treatment, seven of 8 subjects developed signs) is “reduced these signs in all seven affected individuals”.

As to `O=C1c2cccc3c2[C@H](CCC3)CN1[C@@H]1CN2CCC1CC2` [palonosetron], in data set [6], the “naloxone-induced withdrawal symptoms relative to placebo control” value is given as “reduced the naloxone-induced withdrawal symptoms”.

These data come from US9226918B2, “Methods and compositions for treating or preventing narcotic withdrawal symptoms” (The Board of Trustees of the Leland Stanford Junior …, priority 2008, dated 2016).
